Test results reported in US20040034021A1, “Intravenous rifalazil formulation and methods of use thereof” (priority 2002, published 2004).
≈ marks a conversion by molar mass, not a printed value.

What was measured:
[1] = stability against hydrolytic degradation to des-acetyl rifalazil (HPLC); assay type: physicochemical
Protocol: Rifalazil solutions containing the micelle-forming excipient PEG-35 castor oil, prepared as described in Example 2, and without a micelle-forming excipient (15% ethanol, phosphate buffer pH=7.6, 0.9% NaCl) were monitored for stability against the hydrolytic degradation of rifalazil at temperatures of 25° C., 40° C., 50° C., and 60° C. (see FIGS. 7 and 8). The degradation was monitored for several days by HPLC for the disappearance of rifalazil or the appearance of des-acetyl rifalazil, the degradation product that results from the hydrolysis of rifalazil.

S. aureus = assay: MIC by broth microdilution method; assay type: cell-based; conditions: Staphylococcus aureus, CAMH broth, vehicle as in Example 2, 35-37° C., 20-24 hours
Protocol: The MIC (minimum inhibitory concentration) of rifalazil against S. aureus was determined by the broth microdilution method. A vehicle prepared as described in Example 2 was diluted in Cation Adjusted Mueller-Hinton (CAMH) broth to create working solutions that were 4× the maximum concentration to be tested on each microtiter plate. The 4× working solutions were added to the wells of the 96 well microtiter plate and serially diluted two-fold across 11 wells into CAMH.
To prepare the test strain inoculum, 3-5 colonies of S. aureus from a pure 18-24 hour culture grown on a primary agar plate were emulsified into demineralized water and adjusted to a 0.5 McFarland turbidity standard using a calibrated nephelometer. This suspension was then diluted further (1:100) into CAMH broth to yield an inoculum suspension containing approximately 10^6 CFU/ml. Aliquots of the inoculum suspension were added to the rifalazil-containing wells to yield a final concentration in the well of 1-8×10^5 CFU/ml. The microtiter plates were incubated at 35-37° C. for 20-24 hours. The MIC was read as the lowest concentration of the compound that inhibits visible growth.

[2] = solubility of rifalazil in aqueous test solutions (UV-Vis); assay type: physicochemical
Protocol: In order to determine its solubility, to a vial containing solid rifalazil was added a volume of aqueous test solution. The vial was capped and sonicated for about an hour and the remaining undissolved solids were left to settle overnight. The vial was then vortexed for 1 minute, sonicated for another 30 minutes, and centrifuged for 1 hour at 3500 RPM. The supernatent was separated from undissolved rifalazil. The concentration of rifalazil in the test solution was determined by UV-Vis absorbance using a suitable spectrophotometer. Using this method, the solubility of rifalazil was determined as a function of pH (see FIG. 1); in PEG 400-water, propylene glycol-water, and ethanol-water mixtures (see FIG. 2); in Tween-40-water and Tween-80-water mixtures (see FIG. 3); in dodecyltrimethylammonium bromide-water, sodium chenodeoxycholate-water, sodium Octylsulfate-water, sodium deoxycholate-water, sodium cholate-water, and sodium dodecylsulfate-water mixtures (see FIG. 4); in sodium dodecylsulfate- water mixtures at pH 5.4 and 7.4 (see FIG. 5); and in PEG-35 castor oil-water mixtures (see FIG. 6).

## CO[C@H]1/C=C/O[C@@]2(C)Oc3c(C)c(O)c4c(=O)c(c5oc6cc(N7CCN(CC(C)C)CC7)cc(O)c6nc-5c4c3C2=O)NC(=O)/C(C)=C\C=C\[C@H](C)[C@H](O)[C@@H](C)[C@@H](O)[C@@H](C)[C@H](OC(C)=O)[C@@H]1C [Rifalazil, rifalazil]
[1]; PEG-35 castor oil solution of Example 2 vs 15% ethanol, phosphate buffer pH 7.6, 0.9% NaCl, 25-60° C. (FIGS. 7 and 8)
  effect of micelle-forming excipient on hydrolytic degradation of rifalazil: inhibits the hydrolytic degradation
[1]; aqueous environments under ambient conditions, no micelle-forming excipient (FIG. 8)
  hydrolytic degradation of rifalazil: occurs readily
S. aureus
  MIC: 0.015 µg/mL (≈ 0.0159 µM)
[2]; water at pH 7 (FIG. 1)
  ratio of 100 μg/mL (typical low IV dosage concentration) to solubility of the drug in water: 5,000 times
[2]; water at physiological pH
  solubility in water: virtually insoluble
